# Legend:
# [1] = test system: zebrafish larva (Danio rerio); experiment: Neuroprotection in PTZ-induced neurotoxicity model, AChE activity in zebrafish larvae; format: in vivo; conditions: 5 dpf larvae, 10 μM, 5 mM PTZ for 6 hours
# Protocol: The objective of this assay was to analyze the protective effect of compound 2 and of the resveratrol (RES) control in a model of neurotoxicity induced by the neurotoxin pentylenetetrazole (PTZ). As an experimental model, the zebrafish larva (Danio rerio) was used to study the effect of the compounds on acetylcholinesterase activity (AChE) in larvae at 5 days post-fertilization (dpf).
# Zebrafish embryos were seeded in 50 ml of dilution water (AD) in a Petri dish and grown to 5 dpf (larval stage). […] Next, the larvae were transferred using a Pasteur pipette to a 24-well microplate, so that each well contained five larvae, making ten replicates per condition. First, the pre-treatment of the 5 dpf larvae was performed. […] After this incubation period, all of the larvae were examined, and it was determined that the general state of the larvae was totally normal, without any visible anomaly or anomalous behavior. […]
# Determination of AChE levels. […] In addition, the determination of total protein of each experimental group was carried out according to the technical study protocol (Quantification of protein by BCA, as a normalization process). Finally, the AChE levels determined in the control group were taken as a reference measurement and deemed to be 100%.
# [2] = test system: SH-SY5Y neuroblastoma cell line; experiment: Neuroprotection assay: SH-SY5Y viability (MTT) after H2O2 damage; format: cell-based; conditions: H2O2 100 μM, RES 10 μM, MTT 24 h
# Protocol: The SH-SY5Y neuroblastoma cell line was cultured in petri dishes pre-treated with collagen (100 μg/ml) with F12 medium supplemented with penicillin/streptomycin and 10% inactivated fetal bovine serum.
# (§1) Cell viability assays with neurons were prepared in 96-well plates pre-treated with collagen by seeding 20,000 cells/well in a volume of 100 μl and incubating the cells for 24 h before the addition of the compounds. The compounds to be tested were dissolved in DMSO and added in three different concentrations (1, 10 and 100 μM) in order to determine their toxicity. The final percentage of DMSO in each well was adjusted to 1%. The cell viability was evaluated 24 h after the addition of the compounds by means of the MTT assay according to the manufacturer's method. Mean values and standard deviations were calculated from at least 8 different measurements from several independent experiments.
# Neuroprotection assays. […] The cell viability was evaluated 24 h after the addition of the compounds by means of the MTT assay according to the manufacturer's method. Mean values and standard deviations were calculated from at least 8 different measurements from several independent experiments. Neuronal recovery was calculated by normalizing the results of the neuronal viability experiments after the addition of our compounds and H2O2 to the positive control of each experiment (neurons+H2O2).
# [3] = test system: RAW 264.7 macrophages; experiment: Mitigation of LPS damage: RAW 264.7 macrophage viability (MTT); format: cell-based; conditions: LPS 100 ng/ml, RES 10 μM, MTT 24 h
# Protocol: RAW 264.7 macrophages were cultured in P75 with high-glucose DMEm supplemented with penicillin/streptomycin and 10% inactivated fetal bovine serum.
# as §1, with “The cell viability” for “Cell viability”, “with RAW macrophages” for “with neurons”, “plates” for “plates pre-treated with collagen”, “seeding 25,000” for “seeding 20,000”, “for 4” for “for 24”
# Testing of mitigation of damage caused by the addition of LPS. The RAW 264.7 macrophages were cultured according to the procedure described above. […] The cell viability was evaluated 24 h after the addition of the compounds by means of the MTT assay according to the manufacturer's method. Mean values and standard deviations were calculated from at least 8 different measurements from several independent experiments.
Structure (SMILES),AChE activity decrease induced by PTZ [1],recovery of cell viability [2],recovery of cell viability [3]
"CCCCCCCC(=O)OCC1OC(Oc2cc(O)cc(/C=C/c3ccc(O)cc3)c2)C(O)C(O)C1O [Compound 2, trans-resveratrol-3-O-(6′-O-octanoyl)-β-D-glucopyranoside]",significantly prevents the decrease in AChE activity,–,–
"Oc1ccc(C=Cc2cc(O)cc(O)c2)cc1 [RES, resveratrol, reference compound]",–,up to 50%,up to 82%
